Read-outs that look alike come from different tables or passages of the source.
Legend:
[1] = tested on: APN; conditions: cited from earlier work; for Ki: α-Keto amides
[2] = biological target: Argininyl AP (Homo sapiens, UniProt Q9H4A4); conditions: α-Keto amides, cited from earlier work
[3] = tested on: human regulatory T-cells (CD4+CD25+); experiment: Co-culture of human effector cells (CD4+CD25-) and regulatory T-cells, proliferation by tritium thymidine inclusion; type: cell-based; conditions: for effect of the inhibitor on suppressive capacity of the Treg cells: 120 hours co-culture, anti-CD3
Description: Mononuclear cells were obtained from the peripheral blood of healthy donors by means of density-gradient centrifugation. The isolation of regulatory T-cells occurred by means of a two-stage magnetic separation:
In a first step CD4^+ T-cells were recovered by depletion of all CD4-negative cells [CD4 separation kit, Miltenyi Biotech, Bergisch-Gladbach, Germany]. The purity achieved regularly amounted to >95% CD4^+ T-cells.
In a second step CD4^+CD25^+ regulatory T-cells were in turn isolated from this population by magnetic column separation using CD25 marking [anti-CD25 MicroBeads, Miltenyi Biotech].
The CD4^+CD25^− fraction served as effector cell control.
The functional capacity of the regulatory T-cells was tested in a special co-culture. For this, 20 000 effector cells (CD4^+CD25^−) and regulatory T-cells (CD4^+CD25^+) in total were respectively cultivated in different quantitative ratios to one another over a period of 120 hours in microtest plates. A solid phase-bound anti-CD3 antibody [UCHT1, 0.25 μg/well] was used as activator of the T-cell stimulation.
The degree of proliferation of the cultivated cells was analysed on the basis of the DNA synthesis rate by means of tritium thymidine inclusion over 24 hours [n=5].
The degree of proliferation of the cultivated cells was analysed on the basis of the DNA synthesis rate by means of tritium thymidine inclusion over 24 hours [n=3].
Mononuclear cells were obtained from the peripheral blood of healthy donors by means of density-gradient centrifugation. A T-cell separation followed using nylon pad adherence.
The isolation of regulatory T-cells occurred by means of a two-stage magnetic separation:
The degree of proliferation of the cultivated cells was analysed on the basis of the DNA synthesis rate by means of tritium thymidine inclusion over 24 hours [n=10].

[4] = biological target: LAP (Homo sapiens, UniProt P28838); conditions: α-Aminoboric acids; cited from earlier work
[5] = tested on: colitis in Balb-c mice; experiment: DSS colitis model in mice, disease activity index (DAI); type: in vivo; conditions: single intravenous application on day 3, phebestin 0.5 mg/kg or 1 million cells/animal, up to 48 hours after application
Description: Colitis was triggered in Balb-c mice by the oral application of 3% dextran sodium sulphate solution (DSS). The degree of severity of the illness was established on the basis of a disease activity index (DAI). This consisted of the daily documentation of body weight loss, stool consistency, rectal bleeding, food and water intake, and is defined in the publication “Bank, U., Heimburg, A., Helmuth, M., Stefin, S., Lendeckel, U., Reinhold, D., Faust, J., Fuchs, P., Sens, B., Neubert, K., Täger, M., Ansorge, S.; Triggering endogenous immunosuppressive mechanisms by combined targeting of dipeptidyl peptidase IV (DPIV/CD26) and aminopeptidase N (APN/CD13)—A novel approach for the treatment of inflammatory bowel disease; International Immunopharmacology 6: 1925-1934 (2006)”.
Regulatory T-cells from peripheral venous blood were recovered in parallel by means of density-gradient centrifugation and magnetic separation using CD25 Microbeads.
On day 3, either the aminopeptidase N inhibitor phebestin (0.5 mg/kgKG), untreated CD4^+CD25^+ Treg cells (1 million cells/animal) or activated CD4^+CD25^+ Treg cells (1 million cells/animal) were applied once intravenously.
The activation of the Treg cells occurred ex situ using the method according to the invention by incubating the Treg cells for 45 minutes in the presence of phebestin [500 μg/ml].

[6] = tested on: murine regulatory T-cells (CD4+CD25+); experiment: Co-culture of murine effector cells (MNC-CD25-) and regulatory T-cells, proliferation by tritium thymidine inclusion; type: cell-based, mice; conditions: 1.0 μM, after 5 days of co-culture, anti-CD3/anti-CD28
Method: Mononuclear cells (MNC) were obtained from the peripheral blood of healthy mice by means of density-gradient centrifugation. The isolation of regulatory T-cells occurred using CD25 marking [anti-CD25 MicroBeads, Miltenyi Biotech]. The CD25^− MNC fraction served as effector cell control.
The functional capacity of the regulatory T-cells was tested in a special co-culture. For this, 20 000 effector cells (MNC-CD25^−) and regulatory T-cells (CD4^+CD25^+) in total were respectively cultivated in different quantitative ratios to one another over a period of 120 hours in microtest plates. The T-cell stimulation occurred by adding anti-CD3/anti-CD28 [1 μg/ml].
The degree of proliferation of the cultivated cells was analysed on the basis of the DNA synthesis rate by means of tritium thymidine inclusion over 24 hours [n=4].

[7] = biological target: Cytosolic AP; conditions: α-Keto amides; cited from earlier work
[8] = β-Aminothiols table, read-out: IC50 (nM) APN
[9] = N-Phenylphthalimides and -homophthalimides, enzyme not given, alanyl-aminopeptidase, read-out: IC50
[10] = α-Aminoboric acids, read-out: IC50, μM (APN)

Sequence of LAP (P28838 whole entry): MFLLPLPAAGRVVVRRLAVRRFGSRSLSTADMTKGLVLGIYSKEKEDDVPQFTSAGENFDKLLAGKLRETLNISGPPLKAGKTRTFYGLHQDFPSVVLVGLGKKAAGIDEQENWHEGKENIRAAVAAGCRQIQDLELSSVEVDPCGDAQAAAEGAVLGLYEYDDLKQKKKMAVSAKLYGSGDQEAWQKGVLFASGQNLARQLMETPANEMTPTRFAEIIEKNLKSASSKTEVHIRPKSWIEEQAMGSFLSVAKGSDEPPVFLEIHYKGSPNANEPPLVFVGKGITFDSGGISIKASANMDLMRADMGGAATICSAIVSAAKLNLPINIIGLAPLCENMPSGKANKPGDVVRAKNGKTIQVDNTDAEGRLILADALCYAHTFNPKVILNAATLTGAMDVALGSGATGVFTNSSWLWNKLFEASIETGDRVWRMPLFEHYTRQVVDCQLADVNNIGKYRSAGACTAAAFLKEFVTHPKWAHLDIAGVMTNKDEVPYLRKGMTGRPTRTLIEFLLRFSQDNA
Sequence of Argininyl AP (Q9H4A4 whole entry): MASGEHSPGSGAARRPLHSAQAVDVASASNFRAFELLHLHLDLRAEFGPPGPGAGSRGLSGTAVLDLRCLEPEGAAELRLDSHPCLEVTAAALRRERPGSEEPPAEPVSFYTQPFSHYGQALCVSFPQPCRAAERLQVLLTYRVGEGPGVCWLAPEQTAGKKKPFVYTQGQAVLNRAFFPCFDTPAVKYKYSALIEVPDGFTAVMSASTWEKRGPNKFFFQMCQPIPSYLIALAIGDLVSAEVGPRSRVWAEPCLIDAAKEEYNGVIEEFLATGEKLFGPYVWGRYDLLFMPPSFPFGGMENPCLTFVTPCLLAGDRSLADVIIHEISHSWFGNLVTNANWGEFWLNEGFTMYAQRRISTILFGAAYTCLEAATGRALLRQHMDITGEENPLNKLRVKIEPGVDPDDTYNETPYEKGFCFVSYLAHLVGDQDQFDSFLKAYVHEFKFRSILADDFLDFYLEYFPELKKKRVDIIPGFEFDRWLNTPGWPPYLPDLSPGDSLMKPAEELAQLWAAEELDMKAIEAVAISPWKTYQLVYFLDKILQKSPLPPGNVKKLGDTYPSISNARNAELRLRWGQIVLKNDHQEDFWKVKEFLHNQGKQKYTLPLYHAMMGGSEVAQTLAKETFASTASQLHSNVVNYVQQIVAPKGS

**Q.** For `NC(CS)COCc1ccccc1` (centres unmarked), which IC50 [1, 8] is on record?
**A.** The IC50 was 56 nM.

**Q.** What does the source list for `CC(C)CCNC(=O)C(=O)C(N)CC(C)C` (racemic)?
**A.** Ki ([1]; (R) isomer): 18.6 µM; Ki ([1]; (S) isomer): 10.5 µM; Ki ([2]; (R) isomer): 6.5 µM; Ki ([2]; (S) isomer): 3.2 µM

**Q.** For `CC(C)CCNC(=O)[C@@H](O)[C@H](N)Cc1ccccc1`, which Ki [1] is on record?
**A.** The Ki was 20 µM.

**Q.** For `CC(C)c1cccc(C(C)C)c1N1C(=O)Cc2c(O)cccc2C1=O`, which IC50 [1, 9] is on record?
**A.** The IC50 was 4300 nM.

**Q.** For `NC(CS)Cc1ccc(O)cc1` (centres unmarked), which IC50 [1, 8] is on record?
**A.** Its IC50 is 45 nM.

**Q.** For `CSc1ccccc1N1C(=O)Cc2ccccc2C1=O`, which IC50 [1, 9] is on record?
**A.** The IC50 was 900 nM.

**Q.** With `CCOC(=O)[C@H](N)CS` as the molecule, how does the IC50 [1, 8] read?
**A.** Its IC50 is 350 nM.

**Q.** With `CCCCC[C@H](CC(=O)NO)C(=O)N[C@H](C(=O)N1CCC[C@H]1CO)C(C)C` [actinonin] as the molecule, how does the “effect of the inhibitor on suppressive capacity of the Treg cells” value ([3]; physiologically relevant range of 10:1 effector cells to Treg cells (10% Treg)) read?
**A.** Its value is “significant intensification of the suppressive capacity”.

**Q.** What about the “effect of the inhibitor on suppressive capacity of the Treg cells” value ([3]; ratio of 1:1 of effector cells to Treg cells (50% Treg)) of the same molecule?
**A.** Its value is “no reliable effect”.

**Q.** With `CC1(C)OB([C@H](N)Cc2ccccc2)OC1(C)C` as the molecule, how does the IC50 [4] read?
**A.** The IC50 was 0.2 µM.

**Q.** And the IC50 [1, 10]?
**A.** The IC50 was 50 nM.

**Q.** With `NC(CS)CC1CCCCC1` (centres unmarked) as the molecule, how does the IC50 [1, 8] read?
**A.** Its IC50 is 45 nM.

**Q.** With `CC(C)[C@H](NC(=O)[C@@H](O)[C@H](N)Cc1ccccc1)C(=O)N[C@@H](Cc1ccccc1)C(=O)O` [phebestin] as the molecule, how does the “activity of the disease (disease activity index) / clinical symptoms” value [5] read?
**A.** The value was “no effect”.

**Q.** What about the “induction of suppressive capacity of the regulatory T-cells” value [6] of the same molecule?
**A.** Its value is “induced the suppressive capacity of the regulatory T-cells to a significant degree”.

**Q.** Which “induction of suppressive capacity of the regulatory T-cells” value ([3]; 10% and 5% Treg cell components, after 5 days of co-culture) does the source give for `CCc1cccc(CC)c1-n1c(=O)[nH]c2ccccc2c1=O` [PAQ22, 3-(2,6-diethylphenyl-)quinazoline-2,4(1H3H)-dione] here?
**A.** The value was “induced the suppressive capacity”.

**Q.** With `CC(C)c1cccc(C(C)C)c1N1C(=O)Cc2c(N)cccc2C1=O` as the molecule, how does the IC50 [1, 9] read?
**A.** The IC50 was 5400 nM.

**Q.** For `CC(C)(C)SCC(N)CS` (centres unmarked), which IC50 [1, 8] is on record?
**A.** The IC50 was 40 nM.

**Q.** With `N[C@H](Cc1ccccc1)B1OCCCO1` as the molecule, how does the IC50 [4] read?
**A.** The IC50 was 0.2 µM.

**Q.** For `CC(C)C[C@@H](N)B1OC(C)(C)C(C)(C)O1`, which IC50 [4] is on record?
**A.** The IC50 was 0.25 µM.

**Q.** What about the IC50 [1, 10] of the same molecule?
**A.** The IC50 was 74 nM.

**Q.** Which Ki [1] does the source give for `CC(C)CCNC(=O)C(=O)[C@@H](N)Cc1ccccc1` here?
**A.** Its Ki is 2.5 µM.

**Q.** What about the Ki [2] of the same molecule?
**A.** The Ki was 1.5 µM.

**Q.** And the Ki [7]?
**A.** Its Ki is 1 µM.

**Q.** Which Ki [1] does the source give for `CC(C)CCNC(=O)[C@@H](O)[C@H](N)CC(C)C` here?
**A.** Its Ki is 24 µM.

**Q.** And the Ki [2]?
**A.** The Ki was > 300 µM.

**Q.** For `CC(C)C[C@@H](N)B(O)O`, which IC50 [4] is on record?
**A.** Its IC50 is 0.25 µM.

**Q.** With `C[C@@H](N)B1OC(C)(C)C(C)(C)O1` as the molecule, how does the IC50 [4] read?
**A.** The IC50 was 0.35 µM.

**Q.** And the IC50 [1, 10]?
**A.** The IC50 was 70 nM.

**Q.** Which IC50 [1, 8] does the source give for `NC(CS)c1ccccc1` (centres unmarked) here?
**A.** Its IC50 is 25 nM.
